Results from PMC4670726, “Systematic discovery of linear binding motifs targeting an ancient protein interaction surface on MAP kinases” (Molecular Systems Biology, 2015).
Ends that are not written are not given here.

Assays:
p38α = target: T1, p38α (Homo sapiens, UniProt Q16539); experiment: Fluorescence polarization (FP) competitive protein-peptide binding assay, p38α; details: FP competition titration of unlabeled synthetic peptide against 50 nM fluorescently labeled pepMK2 or pepMEF2A, MAPK at ~60–80% complex formation, 384-well, triplicates, average FP signal fitted; limit of quantitation ~100 μM
T1 construct: hexa-histidine; made in house; host or cells: E. coli (Rosetta pLysS)
Experimental: (§1) In addition to confirming binding in the MAPK‐docking groove, the dissociation constant (Kd) of unlabeled test peptides could also be calculated.
(§2) Dashes indicate cases where the curves could not be fitted (the Kd is above the limit of quantitation of this assay, approximately ~100 μM). Peptides are grouped in two clusters, the first being the strong JNK1 binders (frequently with little or no ERK2/p38α‐binding ability). The second group (below the magenta line) contains peptides with strong ERK2‐ and p38α‐binding capacity (but often little or no affinity toward JNK1). […] Gab3+ is the ortholog of a peptide from Gab1 which was tested as positive in the dot‐blot experiments. The two Gab3 motifs are related neither by structure nor by evolutionary origin. […]
(§3) For fluorescence polarization (FP)‐based binding affinity measurements, known MAPK‐docking groove‐binding peptides were N‐terminally labeled with carboxyfluorescein or carboxytetramethylrhodamine (for ERK2, pepRSK1: […]; for p38α, pepMK2: […] or pepMEF2A: […]; for JNK1, pep JIP3: […]). […] Subsequently, increasing amounts of chemically synthesized test peptides were added, and the FP signal was measured with a Synergy H4 (BioTek Instruments) plate reader in 384‐well plates. The Ki for each unlabeled peptide was determined by fitting the data to a competition binding equation. […]

JNK1 = target: T2, JNK1 (Homo sapiens, UniProt P45983); experiment: Fluorescence polarization (FP) competitive protein-peptide binding assay, JNK1; details: FP competition titration of unlabeled synthetic peptide against 50 nM fluorescently labeled pep JIP3, MAPK at ~60–80% complex formation, 384-well, triplicates, average FP signal fitted; limit of quantitation ~100 μM
T2 construct: hexa-histidine; made in house; host or cells: E. coli (Rosetta pLysS)
Experimental: as §1, §2, §3

ERK2 = target: T3, ERK2 (Homo sapiens, UniProt P28482); experiment: Fluorescence polarization (FP) competitive protein-peptide binding assay, ERK2; details: FP competition titration of unlabeled synthetic peptide against 50 nM fluorescently labeled pepRSK1, MAPK at ~60–80% complex formation, 384-well, triplicates, average FP signal fitted; limit of quantitation ~100 μM
T3 construct: hexa-histidine; made in house; host or cells: E. coli (Rosetta pLysS)
Experimental: as §1, §2, §3

T3 sequence (P28482 whole entry): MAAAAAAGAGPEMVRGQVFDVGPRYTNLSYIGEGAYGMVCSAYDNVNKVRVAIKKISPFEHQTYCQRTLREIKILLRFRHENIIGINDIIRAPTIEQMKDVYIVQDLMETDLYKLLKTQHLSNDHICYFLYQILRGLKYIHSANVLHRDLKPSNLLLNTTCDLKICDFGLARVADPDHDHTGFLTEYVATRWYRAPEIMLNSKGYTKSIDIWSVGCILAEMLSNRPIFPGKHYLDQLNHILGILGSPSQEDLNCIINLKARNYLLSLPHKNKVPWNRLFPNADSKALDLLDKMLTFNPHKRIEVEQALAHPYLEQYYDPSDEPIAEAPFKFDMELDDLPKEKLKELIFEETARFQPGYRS
T2 sequence (P45983 whole entry): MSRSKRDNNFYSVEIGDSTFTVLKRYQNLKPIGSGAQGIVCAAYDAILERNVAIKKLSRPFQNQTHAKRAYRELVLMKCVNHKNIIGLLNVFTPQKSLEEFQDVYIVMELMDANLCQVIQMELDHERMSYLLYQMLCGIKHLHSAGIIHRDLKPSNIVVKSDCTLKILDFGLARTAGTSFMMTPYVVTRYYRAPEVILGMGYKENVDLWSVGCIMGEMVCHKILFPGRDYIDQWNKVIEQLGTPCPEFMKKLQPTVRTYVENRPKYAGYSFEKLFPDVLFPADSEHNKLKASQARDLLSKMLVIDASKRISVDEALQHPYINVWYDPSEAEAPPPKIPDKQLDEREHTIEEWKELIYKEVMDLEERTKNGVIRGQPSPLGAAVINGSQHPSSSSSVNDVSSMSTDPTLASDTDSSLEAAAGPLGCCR
T1 sequence (Q16539 whole entry): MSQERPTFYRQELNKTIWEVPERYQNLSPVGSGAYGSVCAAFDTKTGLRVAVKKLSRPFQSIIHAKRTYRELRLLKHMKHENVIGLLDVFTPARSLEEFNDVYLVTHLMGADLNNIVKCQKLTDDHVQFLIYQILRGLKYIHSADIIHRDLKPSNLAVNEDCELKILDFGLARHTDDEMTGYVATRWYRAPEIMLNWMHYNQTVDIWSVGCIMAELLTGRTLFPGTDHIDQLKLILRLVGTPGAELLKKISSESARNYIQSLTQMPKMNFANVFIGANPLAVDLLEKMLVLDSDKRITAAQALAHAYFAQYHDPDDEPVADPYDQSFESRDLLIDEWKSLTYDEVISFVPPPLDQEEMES

- Kd (p38α): 2 µM
- Kd (JNK1): 13.2 µM
- Kd (ERK2): 0.7 µM
Sequence: KPQRKSRPPPLDLRNLS [GAB3+]
